Experimental findings from US7605168B2 (Plexxikon, Inc., priority 2004, dated 2009) are described below.

In experiment [1] the target is T1, PDE4B: catalytic domain of human PDE4B from S152-S528 (Homo sapiens, UniProt Q07343).
T1 construct: The catalytic domain of human PDE4B from S152-S528; His6 (N, cleaved yes); thrombin cleavage site (N, cleaved yes); made in house; host or cells: E. coli BL21 (DE3) RIL
Put plainly: PDE4 IC50 determination by Scintillation Proximity Assay (SPA), PDE4B catalytic domain. In kind it is biochemical. To be noted: [3H]cAMP SPA, 30 min at 30° C. The method in brief: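 Human PDE4B catalytic domain (80 ng/ml) hydrolysed [3H]cAMP in 50 mM Tris pH 7.5, 8.3 mM MgCl, 1.7 mM EGTA, 0.01% BSA for 30 min at 30 °C. Reaction was stopped with yttrium silicate SPA beads in 18 mM ZnSO4, and bound [3H]AMP was counted by scintillation. IC50 came from non-linear regression.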
In general terms: SPA uses beads or plates that emit light when radiolabelled molecules are held near them.

Experiment [2] has as its target T2, PDE4B2: full-length human PDE4B2 isozyme (Homo sapiens, UniProt Q07343).
T2 construct: made in house; host or cells: baculovirus infected insect cells (pFastBacHT)
Put plainly: PDE4 IC50 determination by Scintillation Proximity Assay (SPA), full-length PDE4B2. In kind it is biochemical. To be noted: cell lysate, [3H]cAMP SPA. A digest of the protocol: (§1)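 Unpurified enzyme from cell lysates (PDE4B2 2.5 μl, PDE4D5 0.083 μl of 50% glycerol stock/ml) hydrolysing [3H]cAMP in 50 mM Tris pH 7.5, 8.3 mM MgCl, 1.7 mM EGTA, 0.01% BSA, 30 min at 30 °C. Stopped with yttrium silicate SPA beads in 18 mM ZnSO4; bead-bound [3H]AMP counted. IC50 by non-linear regression.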

Experiment [3] deals with TNFα levels in serum of LPS-challenged rats. Put plainly: Rat inhibition studies: serum TNFα after iv LPS challenge. It counts as in vivo. To be noted: 5 mg/kg po, LPS 0.1 mg/kg iv 2 h after dosing, percent decrease in serum TNFα versus vehicle, read-out: % inhibition r TNFα. As for the experimental part:
All studies were done with male rats CD (SD) IGS BR (Crl) (Charles River, France), which were grouped in to 5 animal groups.
At the end of the acclimatization period, the non-fasted rats were weighed, individually identified on the tail with a permanent marker and administered by oral (po) or interperitoneal (ip) route with either vehicle, reference or test compound in a volume of 10 mL/kg adapted to the body weight. The animals were gathered in groups of 5 animals in a polystyrene labeled cage with sawdust covered floors. 2-hours after vehicle, reference or test substance administration, rats received an intravenous (iv) injection of 0.1 mg/kg LPS in a volume of 1 mL/kg of body weight. 2 h after LPS challenge (or as indicated in Tables 3B and 4B), blood samples were collected into tubes without anticoagulant by retro-orbital puncture under gas (isoflurane) anesthesia. Samples were allowed to clot at room temperature for 5 to 10 min then put on ice until there were prepared by centrifugation (6000×g for 3 min at 4° C.) and stored at −20° C. until use. TNFα levels were measured in serum samples in duplicate by ELISA technique according to the manufacturer's procedure (Rat TNFα kit Quantikine M (RTA00, R&D System, France)). Data are reported as percent decrease in observed TNFα levels versus TNFα levels observed for vehicle dosed animal groups.

Experiment [4] addresses T3, PDE4D5: full-length human PDE4D5 isozyme (Homo sapiens, UniProt Q08499).
T3 construct: made in house; host or cells: baculovirus infected insect cells (pFastBacHT)
Put plainly: PDE4 IC50 determination by Scintillation Proximity Assay (SPA), full-length PDE4D5. In kind it is biochemical. Conditions: cell lysate, [3H]cAMP SPA. A digest of the protocol: as §1

Broadly, the IC50 is the concentration that inhibits the measured activity by half. The low end stands for greater potency in that assay, the high end for weaker potency in that assay.

T2 sequence (Q07343 with tags, fused parts or gaps isoform Q07343-2): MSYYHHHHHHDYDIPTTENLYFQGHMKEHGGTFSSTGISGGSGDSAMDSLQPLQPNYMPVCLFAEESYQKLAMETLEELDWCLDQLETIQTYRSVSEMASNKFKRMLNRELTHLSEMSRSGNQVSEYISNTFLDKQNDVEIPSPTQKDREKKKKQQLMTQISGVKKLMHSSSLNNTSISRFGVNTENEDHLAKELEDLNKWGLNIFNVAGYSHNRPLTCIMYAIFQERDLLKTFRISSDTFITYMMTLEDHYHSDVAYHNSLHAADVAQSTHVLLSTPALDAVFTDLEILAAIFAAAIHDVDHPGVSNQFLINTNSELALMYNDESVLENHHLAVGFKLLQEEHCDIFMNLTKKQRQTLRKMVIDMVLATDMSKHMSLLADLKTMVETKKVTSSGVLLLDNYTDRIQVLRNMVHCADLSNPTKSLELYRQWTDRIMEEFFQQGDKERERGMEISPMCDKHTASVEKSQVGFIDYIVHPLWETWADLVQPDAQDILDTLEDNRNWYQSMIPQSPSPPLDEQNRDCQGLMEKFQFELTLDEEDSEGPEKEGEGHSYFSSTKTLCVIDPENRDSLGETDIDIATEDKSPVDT
T3 sequence (Q08499 with tags, fused parts or gaps isoform Q08499-6): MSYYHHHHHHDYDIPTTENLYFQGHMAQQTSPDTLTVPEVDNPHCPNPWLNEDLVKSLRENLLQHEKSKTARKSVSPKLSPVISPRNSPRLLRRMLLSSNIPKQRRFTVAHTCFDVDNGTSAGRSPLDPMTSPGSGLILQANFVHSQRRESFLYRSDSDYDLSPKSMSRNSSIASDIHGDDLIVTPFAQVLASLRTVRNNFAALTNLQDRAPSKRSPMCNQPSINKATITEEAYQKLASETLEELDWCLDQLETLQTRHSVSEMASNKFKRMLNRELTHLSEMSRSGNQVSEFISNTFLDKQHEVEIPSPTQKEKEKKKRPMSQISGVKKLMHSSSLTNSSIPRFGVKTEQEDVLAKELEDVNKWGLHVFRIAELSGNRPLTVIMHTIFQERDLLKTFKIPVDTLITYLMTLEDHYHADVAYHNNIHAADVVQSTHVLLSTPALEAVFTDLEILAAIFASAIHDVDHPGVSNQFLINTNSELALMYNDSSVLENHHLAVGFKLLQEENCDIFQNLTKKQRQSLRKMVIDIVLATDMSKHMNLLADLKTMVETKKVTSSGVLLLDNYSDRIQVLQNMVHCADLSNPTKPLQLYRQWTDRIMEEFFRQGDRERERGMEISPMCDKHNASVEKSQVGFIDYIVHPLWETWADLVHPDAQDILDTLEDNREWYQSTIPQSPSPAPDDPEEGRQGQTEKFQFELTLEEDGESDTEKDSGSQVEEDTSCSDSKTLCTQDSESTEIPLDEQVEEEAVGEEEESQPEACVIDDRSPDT
T1 sequence (Q07343 324-700): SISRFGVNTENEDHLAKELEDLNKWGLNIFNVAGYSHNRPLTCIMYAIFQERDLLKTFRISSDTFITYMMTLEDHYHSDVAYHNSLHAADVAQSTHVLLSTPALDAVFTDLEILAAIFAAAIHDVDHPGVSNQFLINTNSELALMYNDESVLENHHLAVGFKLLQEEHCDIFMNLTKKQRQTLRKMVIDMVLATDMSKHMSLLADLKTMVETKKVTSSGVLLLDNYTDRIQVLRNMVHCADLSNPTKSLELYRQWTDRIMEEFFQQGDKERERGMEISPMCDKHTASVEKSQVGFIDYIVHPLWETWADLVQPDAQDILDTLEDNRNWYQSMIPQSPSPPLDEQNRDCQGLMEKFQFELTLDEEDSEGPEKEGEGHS

On to `CCOc1ccc2ccccc2c1C(=O)n1cc(-c2ccc(OC)c(OC)c2)c2cccnc21` [Compound 52, [3-(3,4-Dimethoxy-phenyl)-pyrrolo[2,3-b]pyridin-1-yl]-(2-ethoxy-naphthalen-1-yl)-methanone], for which the half-maximal inhibitory concentration (IC50) in experiment [1], in experiment [2] and in experiment [4] was less than 10 µM in each case. The inhibition in vivo at 5 mg/kg in experiment [3] was no less than 20%.
As to `CCOc1ccccc1C(=O)n1cc(-c2ccc(OC)c(OC)c2)c2cccnc21` [Compound 61, [3-(3,4-Dimethoxy-phenyl)-pyrrolo[2,3-b]pyridin-1-yl]-(2-ethoxy-phenyl)-methanone-amide], the IC50 in experiment [1], in experiment [2] and in experiment [4] was less than 10 µM throughout. For the same compound, in experiment [3], the inhibition in vivo at 5 mg/kg is no less than 20%.
